# Data taken from ChEMBL document CHEMBL5393459, “O-linked thiadiazolyl compounds as dna polymerase theta inhibitors” (2022).
# Target: DNA polymerase theta (Homo sapiens, UniProt O75417)
# Assay: Inhibition of human DNA polymerase theta (1 to 899 residues) ATPase activity using dT50 single strand DNA as substrate by NADH oxidation-coupled enzymatic assay
# Chain of DNA polymerase theta (O75417 whole entry, the tested form may be a part): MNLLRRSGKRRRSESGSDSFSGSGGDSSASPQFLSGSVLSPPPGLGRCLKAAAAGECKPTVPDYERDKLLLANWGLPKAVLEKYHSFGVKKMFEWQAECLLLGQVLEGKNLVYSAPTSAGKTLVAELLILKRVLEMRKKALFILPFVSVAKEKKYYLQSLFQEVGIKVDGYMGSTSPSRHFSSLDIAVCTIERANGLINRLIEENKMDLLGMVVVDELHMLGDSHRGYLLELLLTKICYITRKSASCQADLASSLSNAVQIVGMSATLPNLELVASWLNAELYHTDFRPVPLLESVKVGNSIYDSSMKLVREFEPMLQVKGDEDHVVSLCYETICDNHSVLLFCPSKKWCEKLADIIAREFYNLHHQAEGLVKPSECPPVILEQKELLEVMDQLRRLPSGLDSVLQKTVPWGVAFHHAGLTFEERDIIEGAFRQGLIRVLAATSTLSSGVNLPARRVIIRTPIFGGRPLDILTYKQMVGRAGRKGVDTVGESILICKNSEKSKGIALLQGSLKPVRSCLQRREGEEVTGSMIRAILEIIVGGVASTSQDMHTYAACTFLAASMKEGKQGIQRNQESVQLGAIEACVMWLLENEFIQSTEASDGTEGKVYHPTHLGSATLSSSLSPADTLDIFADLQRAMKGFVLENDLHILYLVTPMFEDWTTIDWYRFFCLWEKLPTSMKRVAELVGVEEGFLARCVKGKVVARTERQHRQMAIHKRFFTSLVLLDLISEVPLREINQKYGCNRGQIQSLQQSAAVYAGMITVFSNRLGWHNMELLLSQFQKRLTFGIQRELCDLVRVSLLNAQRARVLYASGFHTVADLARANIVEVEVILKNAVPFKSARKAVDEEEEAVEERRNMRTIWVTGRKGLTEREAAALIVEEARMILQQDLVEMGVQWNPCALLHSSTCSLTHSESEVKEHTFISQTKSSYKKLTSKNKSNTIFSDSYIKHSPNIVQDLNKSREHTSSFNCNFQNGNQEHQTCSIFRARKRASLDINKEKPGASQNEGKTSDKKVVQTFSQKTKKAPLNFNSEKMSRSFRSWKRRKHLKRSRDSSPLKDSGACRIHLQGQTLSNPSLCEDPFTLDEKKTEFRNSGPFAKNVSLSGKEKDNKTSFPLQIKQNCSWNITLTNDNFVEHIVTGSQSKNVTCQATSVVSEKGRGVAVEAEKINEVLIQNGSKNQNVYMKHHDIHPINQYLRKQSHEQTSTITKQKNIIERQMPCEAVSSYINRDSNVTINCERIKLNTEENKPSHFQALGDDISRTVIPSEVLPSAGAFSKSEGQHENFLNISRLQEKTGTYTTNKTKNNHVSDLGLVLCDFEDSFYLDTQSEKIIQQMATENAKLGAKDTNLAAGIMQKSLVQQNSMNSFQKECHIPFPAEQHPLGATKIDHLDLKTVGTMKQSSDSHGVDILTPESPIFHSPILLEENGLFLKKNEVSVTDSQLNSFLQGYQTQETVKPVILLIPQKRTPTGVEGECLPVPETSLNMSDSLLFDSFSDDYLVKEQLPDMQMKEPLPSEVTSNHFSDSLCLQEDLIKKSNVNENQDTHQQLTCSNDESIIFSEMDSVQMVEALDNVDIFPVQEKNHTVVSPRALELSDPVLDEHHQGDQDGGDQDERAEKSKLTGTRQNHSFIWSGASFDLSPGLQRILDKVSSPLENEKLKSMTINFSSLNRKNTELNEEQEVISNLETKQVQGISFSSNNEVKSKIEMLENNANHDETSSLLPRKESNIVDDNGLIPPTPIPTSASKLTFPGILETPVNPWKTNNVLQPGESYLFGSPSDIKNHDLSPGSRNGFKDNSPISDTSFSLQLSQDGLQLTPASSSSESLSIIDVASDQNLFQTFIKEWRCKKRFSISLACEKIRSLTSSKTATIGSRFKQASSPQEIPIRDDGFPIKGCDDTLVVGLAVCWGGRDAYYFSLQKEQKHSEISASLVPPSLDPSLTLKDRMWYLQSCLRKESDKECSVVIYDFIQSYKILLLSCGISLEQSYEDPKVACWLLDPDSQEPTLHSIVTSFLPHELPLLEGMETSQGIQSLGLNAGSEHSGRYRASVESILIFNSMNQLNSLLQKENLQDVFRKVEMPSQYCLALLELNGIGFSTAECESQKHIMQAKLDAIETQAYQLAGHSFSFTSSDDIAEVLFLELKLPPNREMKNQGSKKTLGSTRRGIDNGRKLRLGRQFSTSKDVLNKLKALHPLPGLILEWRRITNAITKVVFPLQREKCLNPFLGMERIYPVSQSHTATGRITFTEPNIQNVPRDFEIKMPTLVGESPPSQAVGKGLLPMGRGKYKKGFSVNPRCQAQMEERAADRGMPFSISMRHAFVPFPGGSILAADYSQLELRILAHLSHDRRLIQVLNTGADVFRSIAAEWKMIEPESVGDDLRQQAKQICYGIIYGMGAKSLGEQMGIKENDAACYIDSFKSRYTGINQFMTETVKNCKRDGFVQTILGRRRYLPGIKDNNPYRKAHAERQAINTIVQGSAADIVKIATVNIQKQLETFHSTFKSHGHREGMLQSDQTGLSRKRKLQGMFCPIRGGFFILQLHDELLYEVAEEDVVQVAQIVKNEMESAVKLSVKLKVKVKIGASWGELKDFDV
smiles,measurement,value
COc1nnc(NC(=O)c2cnc(C)cc2-c2c(OC)ccc3scnc23)s1,IC50,> 10 µM
